# Laboratory results: PubChem BioAssay AID588414 (Sanford-Burnham Center for Chemical Genomics, 2011)
# The source made the active and inactive calls.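 Rule for the calls: active = IC50 at or below 20 µM; inactive = the rest.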
# Target: Glucose-6-phosphate 1-dehydrogenase (Homo sapiens) (UniProt P11413)
# Experiment: human G6PD enzyme inhibitors, SAR follow-up, selectivity assay for P. falciparum G6PD inhibitor project, biochemical, fluorescence, dose response (AID 588414)
# Details: NADPH-diaphorase-resazurin fluorescence
# Chain of Glucose-6-phosphate 1-dehydrogenase (Homo sapiens) (P11413 whole entry, looked up): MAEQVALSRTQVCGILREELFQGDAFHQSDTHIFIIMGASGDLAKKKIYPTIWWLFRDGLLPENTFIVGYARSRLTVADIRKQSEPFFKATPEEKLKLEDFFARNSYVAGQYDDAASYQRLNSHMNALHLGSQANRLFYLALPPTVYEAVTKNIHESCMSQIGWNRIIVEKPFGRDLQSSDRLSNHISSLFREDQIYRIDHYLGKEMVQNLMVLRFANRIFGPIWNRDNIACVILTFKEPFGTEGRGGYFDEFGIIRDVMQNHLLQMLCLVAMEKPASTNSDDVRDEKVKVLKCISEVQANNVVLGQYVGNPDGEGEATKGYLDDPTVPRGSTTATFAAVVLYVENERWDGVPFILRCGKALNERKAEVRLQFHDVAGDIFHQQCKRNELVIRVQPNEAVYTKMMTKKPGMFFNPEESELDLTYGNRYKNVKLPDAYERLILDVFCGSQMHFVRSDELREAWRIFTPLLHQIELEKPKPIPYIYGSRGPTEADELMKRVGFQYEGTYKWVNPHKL
row,Compound,IC50
1,O=C1Nc2cc(C(=O)NCCN3CCCC3)ccc2S/C1=C/c1ccccc1Cl,> 80 µM (inactive)
2,CCN1CCCC1CNC(=O)c1ccc2c(c1)N(Cc1ccccc1F)C(=O)c1ccccc1S2 (stereo not drawn),> 80 µM (inactive)
3,CCN1CCCC1CNC(=O)c1ccc2c(c1)NC(=O)/C(=C\c1ccccc1Cl)S2 (stereo not drawn),> 80 µM (inactive)
4,Cc1cccc(/C=C2/Sc3ccc(C(=O)NCCN4CCCC4)cc3NC2=O)c1,> 80 µM (inactive)
5,CCN1CCCC1CNC(=O)c1ccc2c(c1)NC(=O)/C(=C\c1ccccc1F)S2 (stereo not drawn),> 80 µM (inactive)
6,CN(C)CCNC(=O)c1ccc2c(c1)NC(=O)/C(=C\c1ccccc1F)S2,> 80 µM (inactive)
7,COc1ccc(C(=O)Nc2nnc(S(=O)(=O)N3CCCCCC3)s2)cc1,> 80 µM (inactive)
8,Cc1cccc(C(=O)Nc2nnc(S(=O)(=O)N3CCCc4ccccc43)s2)c1,> 80 µM (inactive)
9,COc1cccc(/C=C2/Sc3ccc(C(=O)NCCN4CCCC4)cc3NC2=O)c1,> 80 µM (inactive)
10,O=C1Nc2cc(C(=O)NCCN3CCCCCC3)ccc2S/C1=C/c1ccccc1Cl,> 80 µM (inactive)
11,CCN(CC)CCNC(=O)c1ccc2c(c1)NC(=O)/C(=C/c1ccccc1)S2,> 80 µM (inactive)
12,CCN1CCCC1CNC(=O)c1ccc2c(c1)NC(=O)/C(=C/c1ccccc1F)S2 (stereo not drawn),> 80 µM (inactive)
13,CCN(CC)CCNC(=O)c1ccc2c(c1)NC(=O)/C(=C\c1ccc(OC)cc1)S2,> 80 µM (inactive)
14,Cc1ccc(C(=O)Nc2nnc(S(=O)(=O)N3CCCc4ccccc43)s2)cc1,> 80 µM (inactive)
15,CCN(CCNC(=O)c1ccc2c(c1)N(Cc1cc(C)ccc1C)C(=O)c1ccccc1S2)c1ccccc1,> 80 µM (inactive)
16,O=C(Nc1nnc(S(=O)(=O)N2CCCCCC2)s1)c1cccc(Cl)c1,> 80 µM (inactive)
17,O=C(Nc1nnc(S(=O)(=O)N2CCOCC2)s1)c1cccc(F)c1,> 80 µM (inactive)
18,CCN1CCCC1CNC(=O)c1ccc2c(c1)NC(=O)c1ccccc1S2 (stereo not drawn),> 80 µM (inactive)
19,O=C(Nc1nnc(S(=O)(=O)N2CCCCCC2)s1)c1cccc(Br)c1,> 80 µM (inactive)
20,CCN(CC)CCNC(=O)c1ccc2c(c1)N(Cc1ccccc1Cl)C(=O)c1ccccc1S2,> 80 µM (inactive)
21,Cc1ccc(C(=O)Nc2nnc(S(=O)(=O)N3c4ccccc4CC3C)s2)cc1 (stereo not drawn),> 80 µM (inactive)
22,COc1ccc(C(=O)Nc2nnc(S(=O)(=O)N3CCCCCC3)s2)cc1OC,> 80 µM (inactive)
23,COc1ccc(/C=C2/Sc3ccc(C(=O)NCCN(C)C)cc3NC2=O)cc1,> 80 µM (inactive)

row,Compound,IC50
1,Cc1cccc(C(=O)Nc2nnc(S(=O)(=O)N3CCC(C)CC3)s2)c1,> 80 µM (inactive)
2,O=C1Nc2cc(C(=O)NCCN3CCCCCC3)ccc2S/C1=C/c1ccccc1F,> 80 µM (inactive)
3,CCN(CC)CCNC(=O)c1ccc2c(c1)N(Cc1cc(C)ccc1C)C(=O)c1ccccc1S2,> 80 µM (inactive)
4,CCN(CC)CCNC(=O)c1ccc2c(c1)NC(=O)/C(=C\c1ccccc1Cl)S2,> 80 µM (inactive)
5,CN(C)CCNC(=O)c1ccc2c(c1)NC(=O)/C(=C\c1cccc(Cl)c1)S2,> 80 µM (inactive)
6,O=C(Nc1nnc(S(=O)(=O)N2CCCCC2)s1)c1cccc(F)c1,> 80 µM (inactive)
7,CC1Cc2ccccc2N1S(=O)(=O)c1nnc(NC(=O)c2cccc(F)c2)s1 (stereo not drawn),> 80 µM (inactive)
8,Cc1ccccc1C(=O)Nc1nnc(S(=O)(=O)N2CCCCCC2)s1,> 80 µM (inactive)
9,Cc1cccc(N2CCN(CCNC(=O)c3ccc4c(c3)NC(=O)c3ccccc3S4)CC2)c1C,> 80 µM (inactive)
10,Cc1cccc(C(=O)Nc2nnc(S(=O)(=O)N3c4ccccc4CC3C)s2)c1 (stereo not drawn),> 80 µM (inactive)
11,CC1Cc2ccccc2N1S(=O)(=O)c1nnc(NC(=O)c2cccc(Br)c2)s1 (stereo not drawn),> 80 µM (inactive)
12,CCN1CCCC1CNC(=O)c1ccc2c(c1)N(Cc1ccc(C(F)(F)F)cc1)C(=O)c1ccccc1S2 (stereo not drawn),> 80 µM (inactive)
13,COc1ccc(/C=C2/Sc3ccc(C(=O)NCCN4CCCC4)cc3NC2=O)cc1,> 80 µM (inactive)
14,Cc1ccccc1C(=O)Nc1nnc(S(=O)(=O)N2CCCc3ccccc32)s1,> 80 µM (inactive)
15,CCCN(CCC)CCNC(=O)c1ccc2c(c1)NC(=O)/C(=C/c1ccccc1)S2,> 80 µM (inactive)
16,CCC(C)N(CCNC(=O)c1ccc2c(c1)NC(=O)c1ccccc1S2)C1CCCCC1 (stereo not drawn),> 80 µM (inactive)
17,CCCN(CCC)CCNC(=O)c1ccc2c(c1)NC(=O)/C(=C\c1ccc(C)cc1)S2,> 80 µM (inactive)
18,O=C(Nc1nnc(S(=O)(=O)N2CCCCCC2)s1)c1ccccc1,> 80 µM (inactive)
19,CCN(CC)CCNC(=O)c1ccc2c(c1)NC(=O)/C(=C\c1cccc(C)c1)S2,> 80 µM (inactive)
20,CCN1CCCC1CNC(=O)c1ccc2c(c1)N(Cc1ccccc1Cl)C(=O)c1ccccc1S2 (stereo not drawn),> 80 µM (inactive)
21,O=C(Nc1nnc(S(=O)(=O)N2CCCc3ccccc32)s1)c1cccc(F)c1,> 80 µM (inactive)
22,CCN(CCNC(=O)c1ccc2c(c1)N(CC)C(=O)c1ccccc1S2)c1ccccc1,> 80 µM (inactive)
23,Cc1cccc(C(=O)Nc2nnc(S(=O)(=O)N3CCOCC3)s2)c1,> 80 µM (inactive)

row,Compound,IC50
1,COc1ccc(/C=C2/Sc3ccc(C(=O)NCCN4CCCCCC4)cc3NC2=O)cc1,> 80 µM (inactive)
2,CCN(CC)CCNC(=O)c1ccc2c(c1)NC(=O)/C(=C\c1ccc(OC)c(OC)c1)S2,> 80 µM (inactive)
3,COc1cccc(/C=C2/Sc3ccc(C(=O)NCCN4CCCCCC4)cc3NC2=O)c1,> 80 µM (inactive)
4,CCN(CC)CCNC(=O)c1ccc2c(c1)N(Cc1ccc(C)cc1)C(=O)c1ccccc1S2,> 80 µM (inactive)
5,CCOc1ccc(C(=O)Nc2nnc(S(=O)(=O)N3CCCCCC3)s2)cc1,> 80 µM (inactive)
6,CCN(CC)CCNC(=O)c1ccc2c(c1)NC(=O)/C(=C\c1ccccc1F)S2,> 80 µM (inactive)
7,Cc1ccc(CN2C(=O)c3ccccc3Sc3ccc(C(=O)NCCN(C)C)cc32)cc1,> 80 µM (inactive)
8,O=C(Nc1nnc(S(=O)(=O)N2CCCCCC2)s1)c1ccc(F)cc1,> 80 µM (inactive)
9,Cc1cccc(C(=O)Nc2nnc(S(=O)(=O)N3CCCCCC3)s2)c1,> 80 µM (inactive)
10,CN(CCNC(=O)c1ccc2c(c1)NC(=O)c1ccccc1S2)C1CCCCC1,> 80 µM (inactive)
11,O=C1Nc2cc(C(=O)NCCN3CCCC3)ccc2S/C1=C/c1ccccc1F,> 80 µM (inactive)
12,Cc1ccc(C(=O)Nc2nnc(S(=O)(=O)N3CCCCCC3)s2)cc1,> 80 µM (inactive)
13,CCN1CCCC1CNC(=O)c1ccc2c(c1)N(Cc1cccc(F)c1)C(=O)c1ccccc1S2 (stereo not drawn),> 80 µM (inactive)
14,CCN(CCNC(=O)c1ccc2c(c1)NC(=O)c1ccccc1S2)c1ccccc1,> 80 µM (inactive)
15,O=C(Nc1nnc(S(=O)(=O)N2CCCCCC2)s1)C1CCCCC1,> 80 µM (inactive)
16,CCN1CCCC1CNC(=O)c1ccc2c(c1)NC(=O)/C(=C\c1ccc(C)cc1)S2 (stereo not drawn),> 80 µM (inactive)
17,COc1ccccc1C(=O)Nc1nnc(S(=O)(=O)N2CCCCCC2)s1,> 80 µM (inactive)
18,CCN(CC)CCNC(=O)c1ccc2c(c1)NC(=O)c1ccccc1S2,> 80 µM (inactive)
19,O=C(Nc1nnc(S(=O)(=O)N2CCCCCC2)s1)c1ccco1,> 80 µM (inactive)
20,O=C(Nc1nnc(S(=O)(=O)N2CCCCCC2)s1)c1cccc(F)c1,> 80 µM (inactive)
21,COc1cccc(C(=O)Nc2nnc(S(=O)(=O)N3CCCCCC3)s2)c1,> 80 µM (inactive)
22,O=C(Nc1nnc(S(=O)(=O)N2CCCCCC2)s1)c1ccccc1F,> 80 µM (inactive)
